For 14 compounds, GI50 and TGI results are on record in PubChem BioAssay (NCI).

“And” between values parts separate entries of the source, which are not always exact repeats. Equal entries are not always repeated.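 Interpolation was linear, between the two tested concentrations surrounding the appropriate level; five concentrations were tested over 48 hours in 96-well plates. The concentration for 50% growth inhibition is given as GI50. At the TGI there is no net growth.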

What all share (test): inhibition of tumour cell growth, NCI panel, 48 h
The subject of experiment [1] is HOP-62 NSCLC.
Experiment [2] has as its system MALME-3M melanoma.
The test system of experiment [3] is LOX IMVI melanoma.
Experiment [4] concerns UO-31 renal.
Experiment [5] has as its system EKVX NSCLC.
In experiment [6] the test system is CCRF-CEM leukemia.
Experiment [7] has as its system OVCAR-8 ovarian.
For experiment [8], the system named is HL-60(TB) leukemia.
Experiment [9] concerns COLO 205 colon.
Experiment [10] relates to SK-OV-3 ovarian.

As to `C=C1C(=O)O[C@H]2[C@H]1CC/C(Cn1cc(-c3ccc(F)cc3)nn1)=C\CC[C@@]1(C)O[C@@H]21`, the GI50 in experiment [1] is 3.04 µM; in [2], 1.4 µM; in experiment [3] it was 0.901 µM; in experiment [4] it was 1.22 µM; in [5], 1.49 µM; in experiment [6], 0.247 µM. Also, the GI50 in experiment [7] was 1.66 µM; in experiment [8], 0.728 µM; in [9] it was 0.459 µM; in experiment [10], 9.78 µM. Moreover, the TGI in [1] stood at 12.1 µM; in [2], 2.97 µM; in experiment [3], 2.22 µM; in experiment [4], 2.51 µM; in experiment [5] it was 2.97 µM; in [6], 0.75 µM. Besides, the TGI in experiment [7] was 3.85 µM; in experiment [8] it was 2.76 µM; in experiment [9], 1.67 µM; in experiment [10] it was 21.4 µM.
For the compound `N#CC(C#N)=Cc1ccc(CP(=O)(O)O)cc1`, the TGI in experiment [1], in [2], in experiment [3], in experiment [4], in experiment [5] and in experiment [6] was > 100 µM in each case. Besides, the TGI in experiment [7], in [8], in experiment [9] and in experiment [10] was > 100 µM in each case.
In the case of `COc1ccc(NC(=O)c2sc3nc(C)c(C(=O)/C=C/c4cccc(OC)c4)cc3c2N)cc1`, the GI50 is 1.29 µM in experiment [1]; 3.85 µM in experiment [2]; 0.906 µM in experiment [3]; 0.842 µM in [4]; 5.7 µM in [5]; 1.21 µM in [6]. The GI50 in experiment [7] is 1.59 µM; in [8], 1.34 µM; in [9], 2 µM; in [10], 6.71 µM. Besides, the TGI in experiment [1] was 3.47 µM; in [2], 45 µM; in experiment [3], 1.71 µM; in experiment [4], 1.76 µM; in experiment [5], 32.5 µM; in experiment [6], > 50 µM. Besides, the TGI is > 50 µM in experiment [7], 4.24 µM in experiment [8], 10.9 µM in experiment [9] and 46 µM in experiment [10].
On to `CCCCCCCCCCCCCCCCOP(=O)([O-])OCC[N+](C)(C)C`, for which the GI50 in [1] was 1.38 µM; in experiment [2], 3.1 µM; in experiment [3], 1.36 µM; in [4], 1.47 µM; in [5], 2.63 µM; in experiment [6], 1.09 µM and 9.72 µM. Further, the GI50 in experiment [7] was 3.31 µM; in [8] it was 0.897 µM; in experiment [9] it was 0.424 µM; in experiment [10], 1.2 µM. Also, the TGI in [2] was 12.6 µM and 52.7 µM; in [5], 11.1 µM and 58.6 µM; in experiment [7], 11.8 µM and 48.3 µM; in experiment [8], 3.84 µM and 16.3 µM; in experiment [10], 9.4 µM and 57.1 µM.
For the compound `O=C(Nc1ccccc1-c1nn(CN2CCNCC2)c(=S)n(CN2CCNCC2)c1=O)C(F)(F)F`, the TGI in experiment [1] worked out at 46.6 µM; in experiment [2] it was 32.9 µM; in experiment [3], 36.5 µM; in experiment [4], 32.6 µM; in [5] it was 32.2 µM; in [6], 45.2 µM. In addition, the TGI in [7] is 53.5 µM; in experiment [8], 43.2 µM; in [9], 31 µM; in experiment [10], 51.4 µM.
On to `Cc1nc(N)nc(N)c1CCCc1ccccc1`, for which the TGI in experiment [1] is 56.8 µM; in [2] it was 95.7 µM; in experiment [3] it was > 100 µM; in [4] it was > 100 µM; in experiment [5] it was > 100 µM; in [6], > 100 µM. Besides, the TGI in [7] was > 100 µM; in [8], 71.7 µM; in experiment [9], > 100 µM; in experiment [10], > 100 µM.
As to `Cc1[nH]c(N)nc(=S)c1CCC(=O)O`, the TGI in experiment [1], in experiment [2], in [3], in [4], in experiment [5] and in [6] was > 100 µM throughout. For the same compound, the TGI in experiment [7], in experiment [8], in experiment [9] and in experiment [10] was > 100 µM throughout.
`N/N=C(\c1nc2ccc(Cl)cc2[nH]c1=O)C(O)c1ccc(Cl)c(Cl)c1` (stereo not given): the TGI in [1], in [2], in experiment [3], in [4], in experiment [5] and in experiment [6] was > 100 µM in each case. Also, the TGI in experiment [7], in [8], in [9] and in experiment [10] was > 100 µM throughout.
With `CC1(C)OC(=O)C(C#N)=C1C[n+]1ccccc1`, the TGI in [1], in [2], in experiment [3], in [4], in experiment [5] and in [6] was > 10 µM in each case. Further, the TGI in experiment [7], in experiment [8], in [9] and in [10] was > 10 µM throughout.
With `COC1=CC(c2ccc[nH]2)=N/C1=C\c1[nH]c(C)c(CC(=O)OCc2ccccc2)c1C`, the GI50 in [1] was 0.374 µM; in [2], 0.578 µM; in experiment [3], 0.214 µM; in experiment [4], 0.193 µM; in [5], 0.351 µM; in experiment [6], 0.184 µM. The GI50 is 0.362 µM in [7], 0.537 µM in [8], 0.24 µM in [9] and 0.457 µM in experiment [10]. The TGI in [1] was 2.27 µM; in [2], 2.1 µM; in experiment [3], 0.753 µM; in [4], 0.398 µM; in experiment [5], 2.06 µM; in [6] it was 1.94 µM. Also, the TGI came to 1.27 µM in experiment [7], 2.44 µM in experiment [8], 1.27 µM in [9] and 2.77 µM in [10].
`CCn1c2c(c3ccccc31)[C@@H](c1ccc(Cl)cc1)CC1C(=O)N(c3ccccc3)C(=O)C21` (stereo not given in full): the TGI in experiment [1], in [2], in [3], in experiment [4], in experiment [5] and in experiment [6] was > 100 µM each time. Besides, the TGI in experiment [7], in experiment [8], in [9] and in experiment [10] was > 100 µM throughout.
With `CC1(C)C2CCC1C(=O)[C@@]1(C=CC(=O)CC1)C2` (stereo not given in full), the TGI in experiment [1], in experiment [2], in experiment [3], in experiment [4], in experiment [5] and in experiment [6] was > 100 µM throughout. Besides, the TGI in experiment [7], in [8], in [9] and in [10] was > 100 µM throughout.
As for `C1CN(P2(N3CC3)=NP(N3CC3)(N3CC3)=NP(N3CC3)(N3CC3)=N2)CCO1` (stereo not given), the TGI in experiment [1] is > 83.4 µM; in experiment [2], > 100 µM; in experiment [3], > 100 µM; in experiment [4], > 100 µM; in [5] it was > 100 µM; in experiment [6], > 100 µM. Moreover, the TGI in experiment [7], in experiment [8], in experiment [9] and in [10] was > 100 µM throughout.
Take `Cn1c(-c2ccccc2)c(/C=C/C2=[N+](C)c3ccccc3C2(C)C)c2ccccc21`: the GI50 in experiment [1] was 2.15 µM; in [2] it was 0.68 µM; in [3] it was 0.527 µM; in experiment [4], 2.23 µM; in [5] it was 0.397 µM; in experiment [6], 1.18 µM. Further, the GI50 in [7] is 0.84 µM; in experiment [8], 0.254 µM; in experiment [9], 1 µM; in experiment [10], 2.38 µM. Further, the TGI in experiment [1] is 12.6 µM; in [2] it was 3.1 µM; in experiment [3], 3.25 µM; in experiment [4], 7.3 µM; in [5] it was 10.4 µM; in experiment [6] it was 54.7 µM. Further, the TGI in experiment [7] was 8.95 µM; in [8] it was 0.565 µM; in [9], 2.47 µM; in experiment [10] it was 8.03 µM.
